Like-named read-outs stand apart in the source and are kept apart here.
Assays:
[1] = Liver microsomal metabolic stability, human liver microsomes (HLM); details: for half-life at 1 μM: human, liver microsomes; for t1/2 (min) in HLM: human liver microsomes, 1 μM compound, 1 mg/mL microsomes, NADPH
[2] = target: USP1/UAF1 enzyme (Homo sapiens, UniProt O94782); assay: USP1/UAF1 deubiquitination assay (ubiquitin-rhodamine 110 substrate); format: biochemical; details: read-out: USP1 IC50 (Ub-Rho)
Procedure, shortened: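 Cleavage of 150 nM ubiquitin-rhodamine 110 by 0.05 nM USP1/UAF1 was followed as fluorescence (Ex480/Em540, kinetic, 30 min) in Tris-HCl pH 7.8 buffer with EDTA, BSA, DTT and Tween-20. Compounds, top 10 μM, were preincubated with enzyme 10 min; % inhibition against no-enzyme and DMSO wells gave four-parameter IC50s.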

[3] = ADME solubility determination in PBS at pH 2.0 and pH 7.4; format: physicochemical; details: for solubility at 24 h: phosphate buffered saline, 25 °C, thermodynamic from solid; for Solubility at pH 2.0 (μM) / Solubility at pH 7.4 (μM): 24 hours
Procedure, shortened: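 Solubility was read by LC-MS/MS on centrifuged supernatants, calibrated to a known-concentration standard and corrected for dilution. Compound, dried down from 10 mM DMSO stock, was equilibrated 24 h at 25° C with shaking in PBS at pH 2.0 or pH 7.4.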

[4] = test system: Ub-PCNA levels in the nucleus of ES2 cells (USP1 activity); assay: ES2 Ub-PCNA immunofluorescence (IF) assay; format: cell-based; details: ES2 cells, 3 hours, Ub-PCNA immunofluorescence, read-out: USP1 IC50 (Ub-PCNA)
Procedure, shortened: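 AC50 derived from percent Ub-PCNA-positive nuclei, positivity set by a 95% cutoff from untreated-well intensities. Readout by imaging immunofluorescence (anti-Ub-PCNA, DAPI nuclear mask) after methanol fixation. Compound exposure: 3 h at 37° C, 0.3% DMSO final, on cells plated overnight.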

[5] = Liver microsomal metabolic stability, rat liver microsomes (RLM); details: 1 μM compound, 1 mg/mL microsomes, NADPH; for half-life at 1 μM: rat, liver microsomes, t1/2 (min) in RLM
[6] = pH 2, aqueous buffer, PBS pH 2.0, 25° C., read-out: Solubility at pH 2.0
[7] = pH 7.4, aqueous buffer, PBS pH 7.4, 25° C., read-out: Solubility at pH 7.4

Sequence of USP1/UAF1 enzyme (O94782 whole entry): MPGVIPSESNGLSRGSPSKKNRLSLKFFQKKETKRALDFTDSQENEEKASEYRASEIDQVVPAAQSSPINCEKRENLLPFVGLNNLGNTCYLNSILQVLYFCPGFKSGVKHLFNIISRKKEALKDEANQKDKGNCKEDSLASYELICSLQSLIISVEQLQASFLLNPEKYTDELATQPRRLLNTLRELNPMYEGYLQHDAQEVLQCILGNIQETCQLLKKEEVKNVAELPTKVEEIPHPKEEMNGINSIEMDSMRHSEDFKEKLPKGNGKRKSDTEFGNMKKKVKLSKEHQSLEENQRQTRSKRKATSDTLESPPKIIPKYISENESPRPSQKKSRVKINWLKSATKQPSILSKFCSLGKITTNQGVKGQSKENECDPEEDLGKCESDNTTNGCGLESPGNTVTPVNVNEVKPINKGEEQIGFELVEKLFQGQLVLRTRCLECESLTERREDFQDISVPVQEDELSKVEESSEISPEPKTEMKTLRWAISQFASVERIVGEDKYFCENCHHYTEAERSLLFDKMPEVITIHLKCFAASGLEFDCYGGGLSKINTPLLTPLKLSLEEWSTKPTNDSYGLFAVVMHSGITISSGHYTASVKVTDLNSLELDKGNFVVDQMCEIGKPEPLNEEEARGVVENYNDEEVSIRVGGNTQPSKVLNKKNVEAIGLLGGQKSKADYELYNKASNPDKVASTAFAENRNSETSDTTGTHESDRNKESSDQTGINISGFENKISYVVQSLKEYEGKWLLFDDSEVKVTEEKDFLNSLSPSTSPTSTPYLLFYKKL
Sequence of USP1/UAF1 enzyme (Q8TAF3 whole entry partner): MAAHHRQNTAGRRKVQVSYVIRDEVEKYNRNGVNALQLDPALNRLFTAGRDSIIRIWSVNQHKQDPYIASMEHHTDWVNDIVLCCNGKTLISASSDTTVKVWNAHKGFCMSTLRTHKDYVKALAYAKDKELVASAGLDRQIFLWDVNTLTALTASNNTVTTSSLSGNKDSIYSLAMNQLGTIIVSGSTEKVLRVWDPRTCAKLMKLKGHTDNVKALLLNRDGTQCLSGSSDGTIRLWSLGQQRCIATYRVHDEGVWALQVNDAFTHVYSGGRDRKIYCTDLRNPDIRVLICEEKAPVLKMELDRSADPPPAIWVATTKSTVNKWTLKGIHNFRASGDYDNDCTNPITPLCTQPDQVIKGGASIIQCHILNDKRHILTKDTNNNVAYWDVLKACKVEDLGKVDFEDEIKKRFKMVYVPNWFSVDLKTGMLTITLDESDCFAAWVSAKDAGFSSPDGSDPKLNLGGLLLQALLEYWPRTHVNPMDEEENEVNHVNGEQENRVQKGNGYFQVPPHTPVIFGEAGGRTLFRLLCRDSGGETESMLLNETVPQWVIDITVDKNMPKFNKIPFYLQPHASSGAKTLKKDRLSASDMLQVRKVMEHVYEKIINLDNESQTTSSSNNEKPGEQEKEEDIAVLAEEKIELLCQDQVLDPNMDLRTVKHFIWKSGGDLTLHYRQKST

| Structure (SMILES) | half-life at 1 μM [1] | IC50 [2] | solubility at 24 h [3, 6] | solubility at 24 h [3, 7] | IC50 ([4]; Homo sapiens, ES-2) | half-life at 1 μM [5] | t1/2 (min) in HLM [1] | Solubility at pH 2.0 (μM) ([3]; PBS pH 2.0, 25° C.) | Solubility at pH 7.4 (μM) ([3]; PBS pH 7.4, 25° C.) | IC50 [4] | t1/2 (min) in RLM [5] |
| --- | --- | --- | --- | --- | --- | --- | --- | --- | --- | --- | --- |
| COc1ncnc(C2CC2)c1-c1nc2n(n1)CCC(=O)N2Cc1ccc(-c2nc(C(F)(F)F)cn2C(C)CF)cc1 (stereo not drawn) [Example 195] | > 25 min | 100 to 500 nM | ≥ 10 µM | ≥ 10 µM | < 100 nM | > 25 min |  |  |  |  |  |
| COc1ncnc(C2CC2)c1-c1nc2n(n1)CCC(=O)N2[C@@H](C)c1ccc(-c2nc(C(F)(F)F)cn2C)c(F)c1 [Example 196] | < 25 min | 100 to 500 nM | ≥ 10 µM | ≥ 10 µM | < 100 nM | > 25 min |  |  |  |  |  |
| COc1ncnc(C2CC2)c1-c1nc2n(n1)CCC(=O)N2[C@@H](C)c1ccc(-c2nc(C(F)(F)F)cn2C2CC2)cc1 [Example 200] | > 25 min | 100 to 500 nM | ≥ 10 µM | ≥ 10 µM | < 100 nM | > 25 min |  |  |  |  |  |
| COc1ncnc(C2CC2)c1-c1nc2n(n1)CCC(=O)N2[C@@H](C)c1ccc(-n2nc(C(F)(F)F)cc2C)c(F)c1 [Example 203] | > 25 min | 100 to 500 nM | ≥ 10 µM | ≥ 10 µM | 100 to 500 nM | > 25 min |  |  |  |  |  |
| CCn1cc(C(F)(F)F)nc1-c1ccc([C@H](C)N2C(=O)CCn3nc(-c4c(OC)ncnc4C4CC4)nc32)cc1Cl [Example 212] |  | < 100 nM |  |  |  |  | ++ (“++” indicates 25 minutes greater) | ++ (“++” indicates 10 μM or greater) | ++ (“++” indicates 10 μM or greater) | < 100 nM | ++ (“++” indicates 25 minutes greater) |
| COc1nccc(C2CC2)c1-c1nc2n(n1)CCC(=O)N2Cc1ccc(-c2nc(C(F)(F)F)cn2C(C)C)c(F)c1 [Example 213] | > 25 min | < 100 nM | < 10 µM | < 10 µM | 100 to 500 nM | > 25 min |  |  |  |  |  |
| COc1c(CN2C(=O)CCn3nc(-c4c(Cl)cnn4C(C)C)nc32)ccc(-c2nc(C(F)(F)F)cn2C(C)C)c1F [Example 216] | > 25 min | < 100 nM | < 10 µM | < 10 µM | 100 to 500 nM | > 25 min |  |  |  |  |  |
| CCn1cc(C(F)(F)F)nc1-c1ccc(CN2C(=O)CCn3nc(-c4c(OC)ncnc4C4CC4)nc32)c(OC)c1F [Example 217] | > 25 min | < 100 nM | ≥ 10 µM | ≥ 10 µM | < 100 nM | > 25 min |  |  |  |  |  |
| Cc1cnn(C(C)C)c1-c1nc2n(n1)CCCN2Cc1ccc(-c2nc(C(F)(F)F)cn2C)cc1 [Example 221, 2-(1-isopropyl-4-methyl-1H-pyrazol-5-yl)-4-(4-(1-methyl-4-(trifluoromethyl)-1H-imidazol-2-yl)benzyl)-4,5,6,7-tetrahydro-[1,2,4]triazolo[1,5-α]pyrimidine] | < 25 min | < 100 nM | ≥ 10 µM | ≥ 10 µM | < 100 nM | < 25 min |  |  |  |  |  |
| Cc1cnn(C(C)C)c1-c1nc2n(n1)CCCN2Cc1ccc(-c2nc(C(F)(F)F)cn2C(C)C)cc1 [Example 222, 4-(4-(1-isopropyl-4-(trifluoromethyl)-1H-imidazol-2-yl)benzyl)-2-(1-isopropyl-4-methyl-1H-pyrazol-5-yl)-4,5,6,7-tetrahydro-[1,2,4]triazolo[1,5-a]pyrimidine] | < 25 min | < 100 nM | ≥ 10 µM | < 10 µM | < 100 nM | < 25 min |  |  |  |  |  |
| CC(C)n1ncc(Cl)c1-c1cc2n(n1)CC(C)(O)C(=O)N2Cc1ccc(-c2nc(C(F)(F)F)cn2C)cc1 (stereo not drawn) [Example 232, 2-(4-chloro-1-isopropyl-1H-pyrazol-5-yl)-6-hydroxy-6-methyl-4-(4-(1-methyl-4-(trifluoromethyl)-1H-imidazol-2-yl)benzyl)-6,7-dihydropyrazolo[1,5-α]pyrimidin-5(4H)-one] | > 25 min | 100 to 500 nM | < 10 µM | < 10 µM | 100 to 500 nM | > 25 min |  |  |  |  |  |
| CCn1cc(C(F)(F)F)nc1-c1ccc(CN2C(=O)C(N)Cn3nc(-c4c(Cl)cnn4C(C)C)cc32)cc1 (stereo not drawn) [Example 233, 6-amino-2-(4-chloro-1-isopropyl-1H-pyrazol-5-yl)-4-(4-(1-ethyl-4-(trifluoromethyl)-1H-imidazol-2-yl)benzyl)-6,7-dihydropyrazolo[1,5-α]pyrimidin-5(4H)-one] |  | < 100 nM |  |  |  |  | ++ (“++” indicates 25 minutes greater) | ++ (“++” indicates 10 μM or greater) | + (“+” indicates less than 10 μM) | 100 to 500 nM | ++ (“++” indicates 25 minutes greater) |

Now from value to compound:

| half-life at 1 μM [1] | IC50 [2] | solubility at 24 h [3, 6] | solubility at 24 h [3, 7] | IC50 ([4]; Homo sapiens, ES-2) | half-life at 1 μM [5] | t1/2 (min) in HLM [1] | Solubility at pH 2.0 (μM) ([3]; PBS pH 2.0, 25° C.) | Solubility at pH 7.4 (μM) ([3]; PBS pH 7.4, 25° C.) | IC50 [4] | t1/2 (min) in RLM [5] | Structure (SMILES) |
| --- | --- | --- | --- | --- | --- | --- | --- | --- | --- | --- | --- |
| > 25 min | < 100 nM | ≥ 10 µM | ≥ 10 µM | < 100 nM | > 25 min |  |  |  |  |  | COc1ncnc(C2CC2)c1-c1nc2n(n1)CCC(=O)N2[C@H](C)c1ccc(-c2nc(C(F)(F)F)cn2C(C)C)cc1 [Example 189] |
| > 25 min | < 100 nM | ≥ 10 µM | ≥ 10 µM | < 100 nM | > 25 min |  |  |  |  |  | CCn1cc(C(F)(F)F)nc1-c1ccc([C@H](C)N2C(=O)CCn3nc(-c4c(OC)ncnc4C4CC4)nc32)cc1F [Example 190] |
| > 25 min | < 100 nM | < 10 µM | < 10 µM | < 100 nM | < 25 min |  |  |  |  |  | CCn1cc(C(F)(F)F)nc1-c1ccc([C@@H](C)N2C(=O)CCn3nc(-c4c(OC)ncnc4C4CC4)nc32)cc1F [Example 191] |
| < 25 min | < 100 nM | < 10 µM | < 10 µM | < 100 nM | < 25 min |  |  |  |  |  | CCn1cc(C(F)(F)F)nc1-c1ccc([C@H](C)N2C(=O)CCn3nc(-c4c(Cl)cnn4C(C)C)nc32)cc1 [Example 193] |
| < 25 min | < 100 nM | < 10 µM | < 10 µM | < 100 nM | < 25 min |  |  |  |  |  | CCn1cc(C(F)(F)F)nc1-c1ccc([C@@H](C)N2C(=O)CCn3nc(-c4c(Cl)cnn4C(C)C)nc32)cc1 [Example 194] |
| > 25 min | < 100 nM | ≥ 10 µM | ≥ 10 µM | < 100 nM | > 25 min |  |  |  |  |  | COc1ncnc(C2CC2)c1-c1nc2n(n1)CCC(=O)N2[C@H](C)c1ccc(-c2nc(C(F)(F)F)cn2C)c(F)c1 [Example 197] |
| > 25 min | < 100 nM | ≥ 10 µM | ≥ 10 µM | < 100 nM | > 25 min |  |  |  |  |  | COc1ncnc(C2CC2)c1-c1nc2n(n1)CCC(=O)N2[C@H](C)c1ccc(-c2nc(C(F)(F)F)cn2C2CC2)cc1 [Example 201] |
| > 25 min | < 100 nM | ≥ 10 µM | ≥ 10 µM | < 100 nM | > 25 min |  |  |  |  |  | COc1ncnc(C2CC2)c1-c1nc2n(n1)CCC(=O)N2[C@H](C)c1ccc(-n2nc(C(F)(F)F)cc2C)c(F)c1 [Example 204] |
| > 25 min | < 100 nM | ≥ 10 µM | < 10 µM | < 100 nM | > 25 min |  |  |  |  |  | COc1ncnc(C2CC2)c1-c1nc2n(n1)CCC(=O)N2[C@H](C)c1ccc(-c2nc(C(F)(F)F)c(Br)n2C)cc1 [Example 206] |
| > 25 min | < 100 nM | ≥ 10 µM | ≥ 10 µM | < 100 nM | > 25 min |  |  |  |  |  | COc1ncnc(C2CC2)c1-c1nc2n(n1)CCC(=O)N2Cc1ccc(-c2nc(C(F)(F)F)cn2C(C)C)c(F)c1OC [Example 210] |
| > 25 min | < 100 nM | ≥ 10 µM | < 10 µM | < 100 nM | < 25 min |  |  |  |  |  | CCn1cc(C(F)(F)F)nc1-c1ccc([C@H](C)N2C(=O)CCn3nc(-c4c(OC)ncnc4C4CC4)nc32)cc1Cl [Example 211] |

Source: patent US20230219965A1 (KSQ Therapeutics, Inc., priority 2020, published 2023)
